Measured values published in patent US10493108B2, “Non-invasive in vivo imaging and methods for treating diabetes” (Biocrine AB, priority 2007, dated 2019).

Tests used:
islet cells = conditions: direct mechanism on islet cells; cited from earlier work
[1] = system: β-cells of RIP-GFP islet grafts; conditions: mouse, in vivo
[2] = Blood glucose after intravenous alloxan; conditions: alloxan 75 mg/kg i.v., after 24 h, n=6
islet cells (β-cells) = test: In vivo recording of [Ca2+]i changes in islets engrafted in the anterior chamber of the eye (Fluo-4/Fura-Red ratio); set-up: species or system mouse; conditions: glibenclamide 1 mg/kg i.v.; remained high throughout the recording
[3] = Blood glucose after intravenous glibenclamide; assay type: in vivo, mouse; conditions: glibenclamide intravenously (1 mg/kg, tail vein); data not shown

FC(F)OC(Cl)C(F)(F)F (stereo not drawn) [Isoflurane]
glucose stimulated insulin release (islet cells): inhibit

O=C1NC(=O)C(=O)C(=O)N1 [alloxan]
GFP fluorescence of islet grafts [1]: substantial loss of GFP fluorescence
annexin V-APC labelling of islet grafts [1]: strong labelling
blood glucose concentration [2]: 25.0 ± 1.3 mmol/L

COc1ccc(Cl)cc1C(=O)NCCc1ccc(S(=O)(=O)NC(=O)NC2CCCCC2)cc1 [glibenclamide]
[Ca2+]i in islet cells (Fluo-4/Fura-Red fluorescence ratio) (islet cells (β-cells)): prominent rises
blood glucose levels [3]: decreased blood glucose levels
